Measurements taken from ChEMBL document CHEMBL1201862, “PubChem BioAssay data set” (2004).
Active and inactive are the calls of the source.

Key:
[1] = molecular target: T1, Rac GTPase-activating protein 1 (Homo sapiens, UniProt Q9H0H5); test: blockers of MgcRacGAP-driven Rac1 GTP hydrolysis – biochemical, ADP Hunter fluorescence, primary and confirmatory, confirmation (AID 624330); type: functional
T1 sequence (Q9H0H5 whole entry): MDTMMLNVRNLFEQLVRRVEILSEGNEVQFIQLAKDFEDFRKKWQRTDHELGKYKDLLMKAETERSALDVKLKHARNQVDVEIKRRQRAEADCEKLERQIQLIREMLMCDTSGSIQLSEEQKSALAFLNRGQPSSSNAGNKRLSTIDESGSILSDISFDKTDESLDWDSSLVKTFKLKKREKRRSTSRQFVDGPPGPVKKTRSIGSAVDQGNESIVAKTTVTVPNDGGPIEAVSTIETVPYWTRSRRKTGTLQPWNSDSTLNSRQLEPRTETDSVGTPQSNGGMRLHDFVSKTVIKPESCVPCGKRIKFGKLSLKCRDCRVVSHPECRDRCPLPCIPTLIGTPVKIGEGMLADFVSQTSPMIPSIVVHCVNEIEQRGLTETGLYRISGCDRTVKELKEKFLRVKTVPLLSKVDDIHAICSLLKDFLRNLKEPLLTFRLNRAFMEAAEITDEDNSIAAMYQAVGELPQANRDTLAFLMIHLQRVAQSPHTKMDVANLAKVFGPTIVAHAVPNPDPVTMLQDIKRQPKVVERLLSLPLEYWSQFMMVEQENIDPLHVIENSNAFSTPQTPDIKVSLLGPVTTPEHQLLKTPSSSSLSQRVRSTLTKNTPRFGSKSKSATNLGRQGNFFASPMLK

[2] = molecular target: T2, Caspase-6 (Homo sapiens, UniProt P55212); test: inhibition of CASP6 peptide cleavage – biochemical, VEID-R110 fluorescence, cherry-pick, dose response (AID 720632)
T2 sequence (P55212 whole entry): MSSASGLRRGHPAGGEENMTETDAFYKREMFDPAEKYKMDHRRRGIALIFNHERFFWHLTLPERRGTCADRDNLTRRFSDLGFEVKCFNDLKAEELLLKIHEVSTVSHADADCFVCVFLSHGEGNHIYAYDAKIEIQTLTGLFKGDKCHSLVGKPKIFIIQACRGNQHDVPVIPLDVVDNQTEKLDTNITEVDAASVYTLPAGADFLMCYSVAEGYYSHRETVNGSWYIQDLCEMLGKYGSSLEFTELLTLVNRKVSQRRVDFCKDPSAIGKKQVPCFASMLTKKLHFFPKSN

[3] = molecular target: Protein Tat (Human immunodeficiency virus type 1 group M subtype B (isolate HXB2)(HIV-1), UniProt P04608); type: functional;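 further: tat binding to TAR RNA read out by fluorescence polarization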
[4] = molecular target: ELAV-like protein 1 (Homo sapiens, UniProt Q15717); test: Identify HuR specific inhibitors.; type: functional
[5] = toxicity to human hepatoma HepG2 cells – cell-based, cherry-picked samples, cytotoxicity control, dose response (AID 1159577); type: functional
[6] = toxicity to human HepG2 hepatoma cells – cell-based, plate reader, dry powder samples, cytotoxicity control, dose response (AID 1159569); type: functional;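 further: inhibitor potency with signal falling toward the positive control level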
[7] = growth inhibition of yeast DHODH-expressing 3D7 parasites – SYBR Green, dry powder samples, dose response (AID 1159570); type: functional, cell-based;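 further: parasite growth measured after 72 hours of compound exposure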
[8] = growth inhibition of PfATP4-mutant resistant parasites – NITD609-resistant line, SYBR Green, dry powder, dose response (AID 1159571); type: functional, cell-based;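 further: parasites synchronized at ring stage by sorbitol before testing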
[9] = Dd2 malaria parasite growth inhibition potency – SYBR Green, dry powder samples, dose response (AID 1159566); type: functional, cell-based;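 further: potency for growth inhibition with lower SYBR green DNA signal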
[10] = P. falciparum Dd2 growth inhibitors, dose response, SYBR Green, cherry-picked samples (AID 1159567); type: functional, cell-based
[11] = molecular target: T3, Low molecular weight phosphotyrosine protein phosphatase (Homo sapiens, UniProt P24666); test: inhibition of human LMPTP enzyme activity – biochemical, absorbance, pNPP substrate, LMPTP-A isoform, set 2, orthogonal assay, dose response (AID 743308); type: functional
T3 sequence (P24666 whole entry): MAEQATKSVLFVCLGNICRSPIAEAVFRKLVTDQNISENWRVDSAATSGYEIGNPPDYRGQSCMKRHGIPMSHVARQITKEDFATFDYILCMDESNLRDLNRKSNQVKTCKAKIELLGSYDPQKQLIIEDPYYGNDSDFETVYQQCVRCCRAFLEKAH

[12] = molecular target: T3, Low molecular weight phosphotyrosine protein phosphatase; test: inhibition of LMPTP-A enzymatic activity – biochemical, OMFP substrate, fluorescence intensity, set 2, dose response (AID 743307); type: functional
[13] = viability loss in HepG2 liver cells – cell-based, luminescence, dry powder, set 9, cytotoxicity control, dose response (AID 743358); type: functional
[14] = molecular target: Mitogen-activated protein kinase 10 (Homo sapiens, UniProt P53779); test: Dose response biochemical screening assay for inhibitors of c-Jun N-Terminal Kinase 3 (JNK3). [Related pubchem assays: 746 ]
[15] = HIV-1 Vif–A3G interaction blockers – biochemical, TR-FRET, GST-Vif 1-94, biotin-A3G peptide, dose response retest, primary screen (AID 1117319); type: functional;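 further: TR-FRET signal of purified GST-Vif binding a biotinylated A3G peptide; inhibitors lower the FRET signal by blocking Vif and A3G binding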
[16] = viability loss in Vero cells – cytotoxicity control for Vif-APOBEC3G degradation inhibitor project, dose response (AID 1117358); type: functional; settings: Vero
[17] = CellTiter-Glo luminescence survival assay, SW480 colon tumor line, concentration-response curve, half-maximal inhibitory concentration (AID 1117338); type: functional
[18] = cytotoxicity toward HCT116 cells – cell-based, CellTiter-Glo luminescence, IC50, dose response (AID 1117332); type: functional; settings: HCT-116
[19] = cytotoxicity toward Colo320 cells – cell-based, CellTiter-Glo luminescence, IC50, dose response (AID 1117334); type: functional; settings: COLO 320
[20] = glucagon-like peptide-1 release potency in STC-1, concentration-response, half-maximal inhibitory concentration in the STC-1 line (AID 1117345); type: functional, cell-based
[21] = cytotoxicity toward HT-29 cells – cell-based, CellTiter-Glo luminescence, IC50, dose response (AID 1117330); type: functional
[22] = Reduced DLD-1 viability, concentration-response, CellTiter-Glo luminescence (AID 1117352); type: functional
[23] = SNU-C1 cell viability reduction, dose response, CellTiter-Glo luminescence (AID 1117323); type: functional, cell-based
[24] = RKO cell viability reduction, dose response, CellTiter-Glo luminescence (AID 1117322); type: functional
[25] = Potency on glucagon-like peptide 1 release, dose-response in NCI-H716 cell line, half maximal inhibitory concentration (AID 1117344); type: functional, cell-based
[26] = HCT116 cell viability decrease, GSK3B pretreatment – CellTiter-Glo, IC50, dose response (AID 1117339); type: functional; settings: HCT-116
[27] = Trypanosoma cruzi growth suppression in host cells – NIH3T3 host cells, beta-gal luminescence, confirmation (AID 2044); type: functional, cell-based;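 further: intracellular parasites grown in NIH/3T3 mouse fibroblasts as host cells; luminescent beta-galactosidase reporter signal from transgenic T. cruzi replicating inside host cells; inhibitors lower the luminescence signal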
[28] = NIH3T3 cell viability loss – ATP luminescence, mouse fibroblasts, counter-screen, dose response (AID 2010); type: functional, cell-based;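 further: cells exposed to compound for about 90 hours before reading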
[29] = molecular target: T4, DNA repair protein RAD52 homolog (Homo sapiens, UniProt P43351); type: functional, biochemical
T4 sequence (P43351 whole entry): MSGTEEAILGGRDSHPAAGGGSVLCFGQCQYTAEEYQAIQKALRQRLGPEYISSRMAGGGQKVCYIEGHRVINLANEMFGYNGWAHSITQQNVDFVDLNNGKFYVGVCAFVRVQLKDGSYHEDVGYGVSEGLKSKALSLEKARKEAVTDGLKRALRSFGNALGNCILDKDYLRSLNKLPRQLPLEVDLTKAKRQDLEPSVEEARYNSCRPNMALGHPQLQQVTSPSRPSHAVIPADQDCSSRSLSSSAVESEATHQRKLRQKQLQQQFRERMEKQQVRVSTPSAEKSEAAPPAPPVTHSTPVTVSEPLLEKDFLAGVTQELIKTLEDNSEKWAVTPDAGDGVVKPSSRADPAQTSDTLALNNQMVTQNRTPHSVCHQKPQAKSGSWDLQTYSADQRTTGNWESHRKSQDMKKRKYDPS

[30] = Counterscreen for activators of the function of SWI/SNF related, matrix associated, actin dependent regulator of chromatin, subfamily a, member 2 (SMARCA2, BRM): Luminescence-based cell-based high throughput dose response assay to identify non-selective compounds using the VP16 reporter assay.; type: functional
[31] = viability loss in HepG2 hepatoma cells – cell-based, ATP luminescence, cherry-pick, activator set 2, cytotoxicity control, dose response (AID 1053143); type: functional
[32] = IC50 of insulin release inhibition, rat insulinoma INS-1E line, 5 mM glucose, cell-based (AID 1117331); type: functional
[33] = cells; type: functional, cell-based; settings: INS-1E
[34] = molecular target: SWI/SNF-related matrix-associated actin-dependent regulator of chromatin subfamily A member 2 (Homo sapiens, UniProt P51531); test: Luminescence-based cell-based high throughput dose response assay to identify activators of the function of SWI/SNF related, matrix associated, actin dependent regulator of chromatin, subfamily a, member 2 (SMARCA2, BRM).; type: functional
[35] = molecular target: T5, Polyadenylate-binding protein 1 (Homo sapiens, UniProt P11940); test: MLLE domain peptide-binding blockers, IC50 – biochemical, fluorescence polarization, FITC-PAM2 peptide, dose response (AID 602259); type: functional; settings: read-out: IC50_Mean
[36] = molecular target: Peroxisome proliferator-activated receptor gamma/Nuclear receptor coactivator 3 (Homo sapiens, UniProt P37231); test: TR-FRET dose response biochemical High Throughput Screening assay for agonists of the steroid receptor coactivator 3 (SRC-3) recruitment by the peroxisome proliferator-activated receptor gamma (PPAR gamma): non-selective agonists. [Related pubchem assays: 1301 (Confirmation screen.), 1048 (Primary screen.)]; type: functional
[37] = molecular target: T6, Fibrinogen beta chain (Homo sapiens, UniProt P02675); test: Fluorescence polarization-based biochemical high throughput dose response assay to identify inhibitors that disrupt the binding of a cyclic peptide (Tn6) to the fibrin proteolytic product D-Dimer and fragment E complex [DD(E )].
[38] = molecular target: Peroxisome proliferator-activated receptor gamma/Nuclear receptor coactivator 2 (Homo sapiens, UniProt P37231); test: TR-FRET dose response biochemical High Throughput Screening assay for agonists of the steroid receptor coactivator 2 (SRC-2) recruitment by the peroxisome proliferator-activated receptor gamma (PPAR gamma): non-selective agonists. [Related pubchem assays: 1297, 1032 ]; type: functional
[39] = molecular target: Peroxisome proliferator-activated receptor gamma/Nuclear receptor coactivator 1 (Homo sapiens, UniProt P37231); test: TR-FRET dose response biochemical High Throughput Screening assay for agonists of the steroid receptor coactivator 1 (SRC-1) recruitment by the peroxisome proliferator-activated receptor gamma (PPAR gamma): non-selective agonists. [Related pubchem assays (depositor defined):AID1300, AID1808, AID504735, AID631]; type: protein assay
[40] = molecular target: T5, Polyadenylate-binding protein 1; test: MLLE binding blockers, Cy5 peptide tracer – biochemical, fluorescence polarization, Cy5-PAM2 peptide, secondary, miRNA deadenylation inhibitor project, dose response (AID 602260); type: functional; settings: read-out: IC50_Mean
[41] = molecular target: Nonstructural protein 1 (Influenza A virus, UniProt Q194T2); type: functional, Influenza A virus (A/California/07/2009(H1N1))
[42] = molecular target: T6, Fibrinogen beta chain; test: Fluorescence polarization-based biochemical high throughput dose response assay to identify inhibitors that disrupt the binding of a cyclic peptide (Tn7) to the fibrin proteolytic product D-Dimer and fragment E complex [DD(E )].

T6 sequence (P02675 whole entry, the tested form may be a part): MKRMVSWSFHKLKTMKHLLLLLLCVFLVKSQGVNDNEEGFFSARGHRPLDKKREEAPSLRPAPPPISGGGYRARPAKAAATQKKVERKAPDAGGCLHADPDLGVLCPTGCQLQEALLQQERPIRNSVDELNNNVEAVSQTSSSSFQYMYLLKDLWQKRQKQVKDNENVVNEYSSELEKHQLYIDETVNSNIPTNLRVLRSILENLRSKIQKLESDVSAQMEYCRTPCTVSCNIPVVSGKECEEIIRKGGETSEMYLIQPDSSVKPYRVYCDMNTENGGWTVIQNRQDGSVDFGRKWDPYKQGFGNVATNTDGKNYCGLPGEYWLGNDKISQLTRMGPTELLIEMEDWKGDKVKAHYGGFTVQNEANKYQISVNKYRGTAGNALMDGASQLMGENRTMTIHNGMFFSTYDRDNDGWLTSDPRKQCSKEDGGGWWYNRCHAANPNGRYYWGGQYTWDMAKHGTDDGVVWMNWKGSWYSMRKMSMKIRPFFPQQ
T5 sequence (P11940 whole entry, the tested form may be a part): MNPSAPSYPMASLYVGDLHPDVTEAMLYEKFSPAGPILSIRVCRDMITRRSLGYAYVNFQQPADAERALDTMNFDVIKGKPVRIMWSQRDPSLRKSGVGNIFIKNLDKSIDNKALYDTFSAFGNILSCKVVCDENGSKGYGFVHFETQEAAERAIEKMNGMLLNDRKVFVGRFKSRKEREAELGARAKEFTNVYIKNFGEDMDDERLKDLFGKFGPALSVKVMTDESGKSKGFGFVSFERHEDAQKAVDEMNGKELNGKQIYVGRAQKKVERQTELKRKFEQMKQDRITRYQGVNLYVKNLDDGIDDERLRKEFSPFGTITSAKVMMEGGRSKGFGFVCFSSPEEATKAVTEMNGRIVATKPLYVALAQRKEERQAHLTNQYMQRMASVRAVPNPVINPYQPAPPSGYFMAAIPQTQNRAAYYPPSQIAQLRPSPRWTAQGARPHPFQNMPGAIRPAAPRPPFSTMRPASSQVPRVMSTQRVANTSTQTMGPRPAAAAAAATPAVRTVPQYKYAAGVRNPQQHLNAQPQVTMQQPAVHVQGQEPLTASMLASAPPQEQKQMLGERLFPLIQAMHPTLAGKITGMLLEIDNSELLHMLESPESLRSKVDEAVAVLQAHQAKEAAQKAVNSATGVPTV
Nonstructural protein 1, sequence (Q194T2 whole entry, the tested form may be a part): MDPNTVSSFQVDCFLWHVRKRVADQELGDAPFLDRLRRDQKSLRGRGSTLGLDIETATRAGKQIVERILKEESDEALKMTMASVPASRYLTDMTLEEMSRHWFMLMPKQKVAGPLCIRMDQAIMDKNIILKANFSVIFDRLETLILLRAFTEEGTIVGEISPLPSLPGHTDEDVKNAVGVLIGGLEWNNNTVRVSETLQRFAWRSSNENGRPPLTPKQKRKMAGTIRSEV
Mitogen-activated protein kinase 10, sequence (P53779 whole entry): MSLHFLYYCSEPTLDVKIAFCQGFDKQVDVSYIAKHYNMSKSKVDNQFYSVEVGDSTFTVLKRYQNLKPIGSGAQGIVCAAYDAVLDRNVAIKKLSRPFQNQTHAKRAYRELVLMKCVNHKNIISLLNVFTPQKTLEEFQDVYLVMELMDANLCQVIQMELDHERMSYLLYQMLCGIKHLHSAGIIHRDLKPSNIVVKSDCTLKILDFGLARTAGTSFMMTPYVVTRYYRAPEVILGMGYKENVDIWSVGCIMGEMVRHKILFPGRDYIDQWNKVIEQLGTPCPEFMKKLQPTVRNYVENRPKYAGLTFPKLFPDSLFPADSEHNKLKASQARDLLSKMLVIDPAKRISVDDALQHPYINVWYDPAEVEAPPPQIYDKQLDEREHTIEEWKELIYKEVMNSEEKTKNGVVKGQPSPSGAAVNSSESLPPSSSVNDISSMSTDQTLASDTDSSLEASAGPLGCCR
Protein Tat, sequence (P04608 whole entry): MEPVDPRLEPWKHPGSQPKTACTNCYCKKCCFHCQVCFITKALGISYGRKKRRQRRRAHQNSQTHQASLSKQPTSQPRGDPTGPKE
Peroxisome proliferator-activated receptor gamma/Nuclear receptor coactivator 2, sequence (P37231 whole entry): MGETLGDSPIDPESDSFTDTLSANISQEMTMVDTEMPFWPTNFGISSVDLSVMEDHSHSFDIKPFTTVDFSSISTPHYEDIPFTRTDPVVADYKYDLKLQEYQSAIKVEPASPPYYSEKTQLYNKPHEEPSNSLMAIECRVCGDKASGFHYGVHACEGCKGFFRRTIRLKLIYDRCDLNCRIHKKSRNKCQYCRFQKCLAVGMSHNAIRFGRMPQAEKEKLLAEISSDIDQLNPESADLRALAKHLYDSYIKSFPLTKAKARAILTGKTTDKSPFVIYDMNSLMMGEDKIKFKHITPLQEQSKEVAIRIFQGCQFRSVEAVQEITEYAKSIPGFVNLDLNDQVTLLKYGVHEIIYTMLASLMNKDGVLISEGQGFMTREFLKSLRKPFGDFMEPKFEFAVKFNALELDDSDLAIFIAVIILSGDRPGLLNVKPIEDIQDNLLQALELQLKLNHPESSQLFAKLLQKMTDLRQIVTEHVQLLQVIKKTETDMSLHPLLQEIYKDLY
Peroxisome proliferator-activated receptor gamma/Nuclear receptor coactivator 2, sequence (Q15596 whole entry, further chain): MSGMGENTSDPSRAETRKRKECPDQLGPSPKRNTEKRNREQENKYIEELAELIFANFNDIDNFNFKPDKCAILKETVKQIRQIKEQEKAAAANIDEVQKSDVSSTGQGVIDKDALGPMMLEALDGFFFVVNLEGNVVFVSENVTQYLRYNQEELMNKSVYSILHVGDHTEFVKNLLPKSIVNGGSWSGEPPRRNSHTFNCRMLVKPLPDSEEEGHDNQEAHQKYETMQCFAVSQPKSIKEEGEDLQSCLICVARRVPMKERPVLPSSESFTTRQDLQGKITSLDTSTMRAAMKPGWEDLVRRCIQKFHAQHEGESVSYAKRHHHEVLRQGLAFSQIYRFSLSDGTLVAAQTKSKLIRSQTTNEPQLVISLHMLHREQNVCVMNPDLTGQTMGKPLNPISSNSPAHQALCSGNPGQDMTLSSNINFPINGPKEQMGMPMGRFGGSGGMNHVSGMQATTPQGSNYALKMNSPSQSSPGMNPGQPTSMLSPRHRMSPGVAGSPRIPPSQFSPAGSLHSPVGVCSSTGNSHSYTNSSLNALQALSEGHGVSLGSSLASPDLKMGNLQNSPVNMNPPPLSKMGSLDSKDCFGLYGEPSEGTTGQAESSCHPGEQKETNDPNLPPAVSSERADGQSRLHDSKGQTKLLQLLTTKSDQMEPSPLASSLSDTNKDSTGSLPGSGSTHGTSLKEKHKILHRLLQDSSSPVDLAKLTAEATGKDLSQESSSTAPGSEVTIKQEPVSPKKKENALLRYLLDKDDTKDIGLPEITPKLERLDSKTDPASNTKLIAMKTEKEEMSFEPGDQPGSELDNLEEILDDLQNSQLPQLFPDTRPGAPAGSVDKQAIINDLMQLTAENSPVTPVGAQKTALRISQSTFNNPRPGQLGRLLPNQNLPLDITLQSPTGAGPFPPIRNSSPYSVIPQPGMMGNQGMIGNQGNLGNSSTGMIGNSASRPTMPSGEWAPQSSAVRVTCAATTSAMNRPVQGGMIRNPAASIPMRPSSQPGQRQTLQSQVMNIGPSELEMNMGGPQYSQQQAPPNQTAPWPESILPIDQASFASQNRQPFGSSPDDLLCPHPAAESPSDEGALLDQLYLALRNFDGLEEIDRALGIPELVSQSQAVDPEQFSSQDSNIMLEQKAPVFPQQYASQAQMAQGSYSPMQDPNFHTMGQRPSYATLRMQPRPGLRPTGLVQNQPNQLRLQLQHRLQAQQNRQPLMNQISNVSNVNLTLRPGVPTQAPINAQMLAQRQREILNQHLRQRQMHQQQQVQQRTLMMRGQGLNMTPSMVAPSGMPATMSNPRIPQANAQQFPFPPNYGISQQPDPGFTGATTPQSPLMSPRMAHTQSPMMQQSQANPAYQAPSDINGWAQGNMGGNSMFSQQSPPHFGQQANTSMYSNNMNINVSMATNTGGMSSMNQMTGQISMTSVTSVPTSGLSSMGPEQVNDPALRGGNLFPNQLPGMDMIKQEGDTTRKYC
ELAV-like protein 1, sequence (Q15717 whole entry): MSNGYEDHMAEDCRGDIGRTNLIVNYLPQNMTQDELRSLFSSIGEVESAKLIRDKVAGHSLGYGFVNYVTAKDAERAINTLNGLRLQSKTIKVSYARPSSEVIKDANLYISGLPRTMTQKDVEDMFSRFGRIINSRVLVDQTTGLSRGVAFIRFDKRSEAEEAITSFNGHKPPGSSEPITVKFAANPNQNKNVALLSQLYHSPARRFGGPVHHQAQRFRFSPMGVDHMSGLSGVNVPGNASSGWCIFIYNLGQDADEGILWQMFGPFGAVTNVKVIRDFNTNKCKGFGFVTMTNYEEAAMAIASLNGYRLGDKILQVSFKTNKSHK

Cc1ccc(Nc2ccc(N)cc2S(=O)(=O)O)cc1
active: IC50 [1] 40.2 µM | AC50 [2] 13.7 µM | IC50 [4] 41 µM
inconclusive: IC50 [3] 49.3 µM

Cc1ccc(-c2ccc([C@@H]3[C@H](CO)N4CCCCN(S(=O)(=O)c5cccc(C)c5)C[C@@H]34)cc2)cc1
inactive: AC50 [5] > 39 µM
active: AC50 [6] 16.4 µM | AC50 [7] 1.15 µM | AC50 [8] 0.87 µM | AC50 [9] 0.955 µM | AC50 [10] 1.49 µM

c1ccc(-c2cc(NCCN3CCCC3)c3ccccc3n2)cc1
active: IC50 [11] 11.9 µM | IC50 [12] 5.46 µM

COc1cccc(NC(=O)N2CC[C@@H]3[C@@H](CO)N(C)c4ccc(-c5cccc(F)c5)cc4[C@@H]32)c1
inactive: AC50 [13] > 52 µM

O=C1C(c2ccncc2)=C(O)c2ccccc21
active: IC50 [14] 6.69 µM

CCOC(=O)c1c(NC(=O)C(C)N2CCN(C(=O)c3ccco3)CC2)sc2c1CCCC2 (stereo not given)
active: IC50 [15] > 100 µM | CC50 [16] 21.6 µM

CCCCC(CC)COC(=O)CC(C(=O)OCC(CC)CCCC)S(=O)(=O)O (stereo not given) [DOCUSATE]
inactive: IC50 [17] > 20 µM | IC50 [18] > 20 µM | IC50 [19] > 20 µM | IC50 [20] > 40 µM | IC50 [21] > 20 µM | IC50 [22] > 20 µM | IC50 [23] > 20 µM | IC50 [24] > 20 µM | IC50 [25] 22.9 µM | IC50 [26] 16.6 µM

Nc1c2ccccc2nc2ccccc12
inactive: IC50 [17] > 20 µM | IC50 [19] 8.81 µM | IC50 [21] > 20 µM | EC50 [30] > 91.1 µM | IC50 [22] > 20 µM | IC50 [32] 18.5 µM | IC50 [23] > 6.67 µM | IC50 [33] > 33.3 µM | IC50 [24] > 6.67 µM
active: EC50 [27] 1.16 µM | EC50 [28] 10.6 µM | IC50 [18] 2.02 µM | AC50 [29] 2.48 µM | AC50 [31] 6.26 µM | IC50 [26] 3.87 µM | EC50 [34] > 3.37 µM

Cc1cc2cc(CNS(=O)(=O)c3ccc4ccccc4c3)ccc2n1C
inactive: IC50 [35] 46.5 µM | IC50 [37] 21 µM | IC50 [40] > 66 µM | IC50 [42] > 83.3 µM
14.4 µM (not active): EC50 [36]
active: EC50 [38] 6.29 µM | EC50 [39] 6.2 µM | IC50 [41] 46.8 µM
